SMILES strings stand for the structures. Read-outs that look alike come from different tables or passages of the source.

The target of one data set is T1, hKCNQ2/3 (Homo sapiens, UniProt O43525+O43526).
T1 construct: expressed in transfected cells; host or cells: CHO
Kind of data set: cell-based. The source says:
Test Method 1: hKCNQ2/3 Thallium Flux Assay
Test Objective: To test the in vitro concentration-response relationship of compounds using FLIPR thallium flux assay in CHO cell lines stably expressing hKCNQ2/3.
According to the split ratio, the cells were transferred to another T-75 flask containing complete cell growth medium. Note: To maintain logarithmic growth, the cells should be kept in a subconfluent monolayer state. Based on the cell doubling time, the cells were passaged every 2-3 days.
• (1) Day 1 - Cell preparation: Cells were digested as described above, and cell density and viability were determined using a Cell Countess. The volume of the single-cell suspension was adjusted with complete cell growth medium. Then, hKCNQ2/3_CHO cells were seeded onto PDL-precoated 384-well plates at a density of approximately 20,000 cells/well (30 µL/well). The plates were then incubated overnight in a 37°C, 5% CO2 humidified air incubator. • (2) Day 2 - Compound preparation: Test compounds were diluted with dimethyl sulfoxide (DMSO) to stock concentrations and stored in a -20°C freezer. A compound addition program was set up on the ECHO liquid handler, and compounds were added to the plates using the ECHO liquid handler. Retigabine (RTG) was used as a positive control at a highest concentration of 100 µM with 3-fold serial dilutions for a total of 9 doses. Buffer containing 5 mM K^+ and 1 mM Tl^+ was added to the plates. Notes: 1) K2SO4 and Tl2SO4 were prepared in 1× chloride-free buffer. Depending on the voltage-gated potassium channel involved, the concentrations of Tl^+ and K^+ should be adjusted. Tl^+ concentration is approximately 0.5-5 mM, and K^+ concentration is approximately 5-30 mM. 2) Each 1 mM solution of K2SO4 and Tl2SO4 contains 2 mM K^+ and Tl^+; the final concentration should be calculated based on the ion concentration. 3) TlCl readily precipitates and a chloride-free buffer is required. • (3) Day 2 -Assay testing: Once the cells reached the desired confluence, the cell assay plates were removed from the incubator. Assay buffer and diluted Tl^+ dye (Molecular Devices # R8222) were prepared. The medium was discarded using a Bravo liquid handler, and 25 µL of Tl^+ dye was added to each well. After 1 hour of incubation, the cell assay plates, composite plates and FLIPR tips were placed in the FLIPR^TETRA (Molecular Devices, USA) for FLIPR detection. After setting up the tips, baseline readings were taken for 60 seconds, then 12.5 µL was added from the composite plate (3×) to the cell assay plate, and data were recorded for at least 5 minutes. • (4) Data processing: Maximum signals were generated by the FLIPR software. […] Data quality control: S/B > 2.00, Z factor > 0.50.
• (1) Day 1 - Cell preparation: Cells were digested as described above, and cell density and viability were determined using a Cell Countess. The volume of the single-cell suspension was adjusted with complete cell growth medium. Then, hKCNQ2/3_CHO cells were seeded onto PDL-precoated 384-well plates at a density of approximately 20,000 cells/well (30 µL/well). The plates were then incubated overnight in a 37°C, 5% CO2 humidified air incubator. • (2) Day 2 - Compound preparation: Test compounds were diluted with dimethyl sulfoxide (DMSO) to stock concentrations and stored in a -20°C freezer. A compound addition program was set up on the ECHO liquid handler, and compounds were added to the plates using the ECHO liquid handler. Retigabine (RTG) was used as a positive control at a highest concentration of 100 µM with 3-fold serial dilutions for a total of 9 doses. Buffer containing 5 mM K^+ and 1 mM Tl^+ was added to the plates. Notes: 1) K2SO4 and Tl2SO4 were prepared in 1× chloride-free buffer. Depending on the voltage-gated potassium channel involved, the concentrations of Tl^+ and K^+ should be adjusted. Tl^+ concentration is approximately 0.5 mM -5 mM, and K^+ concentration is approximately 5 mM -30 mM.

The subject of data set [1] is maximal electroshock-induced epilepsy model. Put plainly: Maximal electroshock-induced epilepsy model, behavioral pharmacodynamics. In kind it is in vivo. The conditions noted are these: dose 5 mg/kg, oral, one hour before electrical stimulation; male CD-1 mice. The text has this: Assay Example 2: Evaluation of the behavioral pharmacodynamics of the test compounds in a maximal electroshock-induced epilepsy model
This study used behavioral tests in male CD-1 mice to investigate the effects of test compounds on acute epileptic seizures behavior induced by maximal electroshock.
Male CD-1 mice (25 to 35g) were used as the experimental animals and fed with standard feed (Beijing Vital River Laboratory Animal Technology Co., Ltd.).
After arriving at the animal facility, the experimental animals needed to acclimatize for at least one week. The mice were observed daily for vital signs, and randomly divided into groups according to their body weights one day before the drug administration. One hour before the electrical stimulation, different dosages of the test compound were orally administered to each group. On the day of the assay, the male CD-1 mice in each group were anesthetized locally at the cornea with 2% lidocaine. Then, silver bipolar electrodes were used to electrically stimulate the cornea of the mice with 18 mA, 60 Hz, a pulse width of 0.6 ms, and a stimulation time of 1 s to induce seizures. Subsequently, the latency of seizures and the duration of limb rigidity in mice after the electrical stimulation were observed, and the protection rate from seizures for each group was statistically analyzed.
For orientation: Protection in the maximal electroshock model is a classic sign of anticonvulsant action.

The nature of data set [2]: Pharmacokinetic evaluation in mice (IV and PO). The class given is in vivo. The conditions noted are these: mouse, plasma, CD-1 mice; for half-life: IV, read-out: Half-life T1/2 (IV) (converted); for AUC(0-t): PO, read-out: Area under the concentration-time curve AUC0-last PO; for bioavailability: read-out: Bioavailability F; for clearance: read-out: Clearance CL; for Cmax: read-out: Peak plasma concentration Cmax; for Vd: read-out: Volume of distribution Vdss. The procedure:
Test Method 2: Pharmacokinetic Evaluation in Mice
Assay method: Test compounds were mixed with 5% DMSO / 60% polyethylene glycol (PEG400) / 35% water, vortexed and sonicated to obtain a clear 0.2 mg/mL solution, which was then filtered through a microporous membrane before use. Male CD-1 mice weighing 25-35 g were selected. The candidate compound solution was administered intravenously at a dose of 1 mg/kg. The candidate compound solution was orally administered at a dose of 5 mg/kg after fasting. Blood samples (25 µL each) were collected at 0.083, 0.25, 0.5, 1, 2, 4, 8, 12 and 24 hours after administration, and placed into commercial anticoagulant tubes pre-containing EDTA-K2. The tubes were centrifuged for 10 minutes to separate plasma, which was then stored at -60°C. The content of the target compound in plasma samples was determined by LC/MS/MS method, and pharmacokinetic parameters were calculated using Phoenix WinNonlin software (Pharsight, USA).
Tlast: time of the last detection point. AUC0-last: (Area Under the Concentration-Time Curve) refers to the area enclosed by the plasma drug concentration curve and the time axis. F (Bioavailability) is a measure of the rate and extent to which a drug is absorbed into the systemic circulation, serving as a critical indicator for evaluating the degree of drug absorption. […]

Setting [3] is: agonistic effect, CHO cells stably expressing hKCNQ2/3, FLIPR thallium flux, read-out: EC50.

T1 sequence (O43526 whole entry): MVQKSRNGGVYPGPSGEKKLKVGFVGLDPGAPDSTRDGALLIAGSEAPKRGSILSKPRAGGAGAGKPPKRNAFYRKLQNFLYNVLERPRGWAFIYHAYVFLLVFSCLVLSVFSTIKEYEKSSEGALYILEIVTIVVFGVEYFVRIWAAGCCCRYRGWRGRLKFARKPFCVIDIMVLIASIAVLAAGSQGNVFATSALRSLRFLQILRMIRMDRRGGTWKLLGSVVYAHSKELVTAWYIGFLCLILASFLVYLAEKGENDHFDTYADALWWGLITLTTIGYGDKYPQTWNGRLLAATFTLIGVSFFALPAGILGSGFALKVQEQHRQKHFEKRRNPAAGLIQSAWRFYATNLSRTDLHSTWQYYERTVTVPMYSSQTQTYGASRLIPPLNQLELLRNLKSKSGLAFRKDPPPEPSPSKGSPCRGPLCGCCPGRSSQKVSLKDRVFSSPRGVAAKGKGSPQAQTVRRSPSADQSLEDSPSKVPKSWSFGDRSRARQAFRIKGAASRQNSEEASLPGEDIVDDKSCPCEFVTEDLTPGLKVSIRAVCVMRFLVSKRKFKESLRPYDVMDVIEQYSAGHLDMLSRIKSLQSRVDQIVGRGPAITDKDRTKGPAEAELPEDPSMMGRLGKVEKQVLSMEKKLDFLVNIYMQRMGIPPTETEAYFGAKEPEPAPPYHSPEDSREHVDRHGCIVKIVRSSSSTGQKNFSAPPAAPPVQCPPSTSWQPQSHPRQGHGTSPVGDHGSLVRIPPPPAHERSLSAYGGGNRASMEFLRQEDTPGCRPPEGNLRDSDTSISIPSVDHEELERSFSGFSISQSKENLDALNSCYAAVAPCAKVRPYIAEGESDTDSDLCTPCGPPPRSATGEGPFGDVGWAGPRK
T1 sequence (O43525 whole entry): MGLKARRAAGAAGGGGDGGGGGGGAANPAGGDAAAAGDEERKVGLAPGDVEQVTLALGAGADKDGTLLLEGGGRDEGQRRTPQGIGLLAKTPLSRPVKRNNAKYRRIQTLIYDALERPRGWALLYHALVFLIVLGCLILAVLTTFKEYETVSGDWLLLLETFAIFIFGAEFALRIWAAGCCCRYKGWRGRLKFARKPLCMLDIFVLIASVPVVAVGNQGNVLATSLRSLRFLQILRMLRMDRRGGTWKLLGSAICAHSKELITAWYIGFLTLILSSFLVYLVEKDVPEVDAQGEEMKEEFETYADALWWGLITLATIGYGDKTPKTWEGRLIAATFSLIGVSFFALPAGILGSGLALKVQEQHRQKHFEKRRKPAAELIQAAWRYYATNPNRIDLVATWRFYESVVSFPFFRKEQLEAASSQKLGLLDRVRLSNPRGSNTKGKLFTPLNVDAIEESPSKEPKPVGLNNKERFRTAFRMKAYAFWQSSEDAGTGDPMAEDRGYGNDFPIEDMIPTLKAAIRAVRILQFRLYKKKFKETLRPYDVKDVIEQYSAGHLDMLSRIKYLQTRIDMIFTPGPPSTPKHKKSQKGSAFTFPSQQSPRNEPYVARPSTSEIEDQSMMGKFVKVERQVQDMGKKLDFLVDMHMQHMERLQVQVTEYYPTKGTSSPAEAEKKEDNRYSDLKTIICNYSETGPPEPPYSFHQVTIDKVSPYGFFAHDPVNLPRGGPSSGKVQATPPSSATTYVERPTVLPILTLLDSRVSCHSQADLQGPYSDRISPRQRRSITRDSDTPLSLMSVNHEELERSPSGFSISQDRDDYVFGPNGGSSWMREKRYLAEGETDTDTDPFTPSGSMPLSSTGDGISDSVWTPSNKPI

The EC50 is the concentration giving half of the maximal effect. A word on the bioavailability: it is dose-corrected exposure relative to a reference, in per cent. `Cc1nc(Nc2ccc3c(C)c(NC(=O)CC4(C)CC4)n(C)c3c2)ccc1F` [Compound 36] had an EC50 on hKCNQ2/3 of 220 nM. Also, the “Seizure incidence (%)” value in data set [1] was determined as 0%. Further, in data set [2] (dose IV:1, PO:5 mg/kg), the half-life was 1.7 h, the AUC(0-t) was 29.5 µM·h, the bioavailability was 92.7% and the clearance was found to be 6.9 mL/min/kg. In data set [2] (dose IV:1, PO:5 mg/kg), the Cmax was found to be 4750 nM and the Vd is 0.8 L/kg.

Take `Cc1c(NC(=O)C2CCC2)n(C)c2cc(Nc3ccc(F)cn3)ccc12` [Compound 22]: the EC50 on hKCNQ2/3 (setting [3]) is 430 nM.

As for `Cc1c(NC(=O)CC2(C)CC2)n(C)c2cc(Nc3ccc(F)cn3)ccc12` [Compound 28], on hKCNQ2/3 (setting [3]), the EC50 came out at 560 nM.

Regarding `CCC(=O)Nc1c(C)c2ccc(Nc3ccc(F)cc3)cc2n1C` [Compound 16], on hKCNQ2/3 (setting [3]), the EC50 was 700 nM.

For `Cc1c(NC(=O)CC(C)(C)C)n(C)c2cc(Nc3ncc(F)cn3)ccc12` [Compound 38], at hKCNQ2/3 (setting [3]), the EC50 was 820 nM.

`Cc1c(NC(=O)C2CCCC2)n(C)c2cc(Nc3ccc(F)cn3)ccc12` [Compound 21]: the EC50 at hKCNQ2/3 (setting [3]) turned out to be 220 nM.

For `Cc1c(NC(=O)C2CC2)n(C)c2cc(Nc3ccc(F)cc3)ccc12` [Compound 13], the EC50 on hKCNQ2/3 (setting [3]) is 500 nM.

`CC(C)(C)CC(=O)Nc1nc2c(F)cc(Nc3ccc(F)cc3)cc2n1C1CCC1` [Compound 4]: in data set [2] (dose IV:0.5, PO:2 mg/kg), the half-life was 1.2 h, the AUC(0-t) was found to be 2.98 µM·h, the bioavailability turned out to be 64.2% and the clearance was 17.9 mL/min/kg. In data set [2] (dose IV:0.5, PO:2 mg/kg), the Cmax turned out to be 548 nM and the Vd is 2.14 L/kg.

For the compound `Cc1c(NC(=O)CC(C)(C)C)n(C)c2cc(Nc3ccc(Cl)cn3)ccc12` [Compound 30], the EC50 on hKCNQ2/3 (setting [3]) came out at 210 nM.

On hKCNQ2/3, `Cc1c(NC(=O)CC(C)(C)C)n(C)c2cc(Nc3ccc(F)cn3)ccc12` [Compound 11] yielded an EC50 of 200 nM. Also, in data set [2] (dose IV:0.5, PO:2 mg/kg), the half-life was 0.7 h, the AUC(0-t) turned out to be 1.11 µM·h, the bioavailability came out at 62.2% and the clearance was found to be 50.3 mL/min/kg. In addition, in data set [2] (dose IV:0.5, PO:2 mg/kg), the Cmax was found to be 524 nM and the Vd was found to be 2 L/kg.

As for `Cc1ccc(Nc2ccc3c(C)c(NC(=O)CC(C)(C)C)n(C)c3c2)nc1` [Compound 29], on hKCNQ2/3 (setting [3]), the EC50 is 410 nM.

Values taken from patent publication EP4810483A1, “6- AND 5-HETEROARYL DERIVATIVES AND USE THEREOF” (CMS Research & Development Pte. Ltd., priority 2023, dated 2025).
